Results taken from ChEMBL document CHEMBL3232731, “Diterpene glycosides and polyketides from Xylotumulus gibbisporus” (J Nat Prod, 2014).
In brackets after ≈: the same amount, converted by molar mass.

Columns and labels:
[1] = tested on: RAW264.7; assay: Antiinflammatory activity in mouse RAW264.7 cells assessed as inhibition of LPS-induced nitric oxide production by spectrophotometric analysis; format: functional, cell-based
[2] = tested on: Saccharomyces cerevisiae; assay: Antifungal activity against Saccharomyces cerevisiae ATCC 2345 by NCCLS method; format: functional
[3] = tested on: Candida albicans; assay: Antifungal activity against Candida albicans ATCC MYA-2876 by NCCLS method; format: functional
[4] = tested on: Candida albicans; assay: Antifungal activity against Candida albicans ATCC 18804 by NCCLS method; format: functional
[5] = tested on: RAW264.7; assay: Cytotoxicity against mouse RAW264.7 cells by Alamar Blue assay; format: cell-based

Structure (SMILES) | IC50 [1] [µM] | MIC [2] [µg/mL] | MIC [3] [µg/mL] | MIC [4] [µg/mL] | Activity [5]
N=C(NCCC[C@H](N)C(=O)O)N[N+](=O)[O-] [NITROARGININE] | 146 | – | – | – | –
N=C(N)NN [PIMAGEDINE] | 22.3 | – | – | – | –
CO[C@H]1[C@@H](O)[C@H](O)[C@H](OC[C@@]23C[C@@H]4[C@H](C)CC[C@H]4[C@@]4(C=O)CC2C=C(C(C)C)[C@@]34C(=O)O)O[C@@H]1C [SORDARIN] | 157 | 32 (≈ 65 µM) | 32 (≈ 65 µM) | 64 (≈ 130 µM) | Non-toxic
CO[C@H]1[C@@H](O)[C@H](O)[C@H](OC[C@@]23C[C@@H]4[C@H](C)CC[C@H]4[C@@]4(C=O)C[C@@H]2C(=O)C(=C(C)C)[C@@]34C(=O)O)O[C@@H]1C | 327 | – | – | – | Non-toxic
